# In patent publication US7446199B2, “Compositions useful as inhibitors of protein kinases” (Vertex Pharmaceuticals Incorporated, priority 2003, dated 2008):
# Target: T1, Aurora-2 (Homo sapiens, UniProt O14965)
# T1 construct: addition of 10 μL of Aurora-2 stock solution to give a final concentration of 70 nM
# T1 sequence (O14965 1-403): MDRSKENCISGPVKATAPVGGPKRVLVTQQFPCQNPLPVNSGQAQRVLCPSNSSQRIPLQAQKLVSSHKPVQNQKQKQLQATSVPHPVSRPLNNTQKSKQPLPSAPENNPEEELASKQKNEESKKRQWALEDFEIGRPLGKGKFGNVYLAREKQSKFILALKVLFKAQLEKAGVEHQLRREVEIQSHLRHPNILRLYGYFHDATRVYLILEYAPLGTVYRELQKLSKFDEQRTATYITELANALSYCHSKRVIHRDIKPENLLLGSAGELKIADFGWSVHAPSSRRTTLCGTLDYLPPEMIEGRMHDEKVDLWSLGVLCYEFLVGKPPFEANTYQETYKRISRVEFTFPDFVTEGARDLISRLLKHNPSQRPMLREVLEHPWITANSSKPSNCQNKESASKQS
# Assay: Inhibition of AUR-2, coupled enzyme assay
# Format: biochemical
# Conditions: 70 nM Aurora-2, 800 μM peptide LRRASLG, 30° C.
# Experimental: Compounds are screened in the following manner for their ability to inhibit Aurora-2 using a standard coupled enzyme assay (Fox et al. (1998) Protein Sci 7, 2249). To an assay stock buffer solution containing 0.1M HEPES 7.5, 10 mM MgCl2, 1 mM DTT, 25 mM NaCl, 2.5 mM phosphoenolpyruvate, […], […], […], and 800 μM peptide (LRRASLG, American Peptide, Sunnyvale, Calif.) is added a DMSO solution of a compound of the present invention to a final concentration of 30 μM. The resulting mixture is incubated at 30° C. for 10 min. The reaction was initiated by the addition of 10 μL of Aurora-2 stock solution to give a final concentration of 70 nM in the assay. The rates of reaction are obtained by monitoring absorbance at 340 nm over a 5 minute read time at 30° C. using a BioRad Ultramark plate reader (Hercules, Calif.). The Ki values are determined from the rate data as a function of inhibitor concentration.
row,Compound,Ki [nM]
1,"Fc1cccc(-c2cnoc2-c2c[nH]c3ncccc23)c1F [Compound 1, 3-[4-(2,3-Difluoro-phenyl)-isoxazol-5-yl]-1H-pyrrolo[2,3-b]pyridine]",200 to 1000
2,"Clc1cccc(-c2cnoc2-c2c[nH]c3ncccc23)c1Cl [Compound 2, 3-[4-(2,3-Dichloro-phenyl)-isoxazol-5-yl]-1H-pyrrolo[2,3-b]pyridine]",200 to 1000
3,"Fc1cccc(-c2cnoc2-c2c[nH]c3ncc(Br)cc23)c1F [Compound 37, 5-Bromo-3-[4-(2,3-difluoro-phenyl)-isoxazol-5-yl]-1H-pyrrolo[2,3-b]pyridine]",< 200
4,"COc1cnc2[nH]cc(-c3oncc3-c3cccc(F)c3F)c2c1 [Compound 38, 3-[4-(2,3-Difluoro-phenyl)-isoxazol-5-yl]-5-methoxy-1H-pyrrolo[2,3-b]pyridine]",200 to 1000
5,"Fc1c(Cl)cccc1-c1cnoc1-c1c[nH]c2ncccc12 [Compound 42, 3-[4-(3-Chloro-2-fluoro-phenyl)-isoxazol-5-yl]-1H-pyrrolo[2,3-b]pyridine]",200 to 1000
6,"Oc1cnc2[nH]cc(-c3oncc3-c3cccc(F)c3F)c2c1 [Compound 43, 3-[4-(2,3-Difluoro-phenyl)-isoxazol-5-yl]-1H-pyrrolo[2,3-b]pyridin-5-ol]",200 to 1000
7,"c1cnc2[nH]cc(-c3oncc3C3CCCCC3)c2c1 [Compound 47, 3-(4-Cyclohexyl-isoxazol-5-yl)-1H-pyrrolo[2,3-b]pyridine]",200 to 1000
8,"Fc1cccc(-c2cnoc2-c2c[nH]c3ncc(-c4ccncc4)cc23)c1F [Compound 57, 3-[4-(2,3-Difluoro-phenyl)-isoxazol-5-yl]-5-pyridin-4-yl-1H-pyrrolo[2,3-b]pyridine]",< 200
9,"Fc1cccc(-c2cnoc2-c2c[nH]c3ncc(-c4ccccc4)cc23)c1F [Compound 58, 3-[4-(2,3-Difluoro-phenyl)-isoxazol-5-yl]-5-phenyl-1H-pyrrolo[2,3-b]pyridine]",200 to 1000
10,"Fc1cccc(-c2cnoc2-c2c[nH]c3ncc(-c4cccnc4)cc23)c1F [Compound 59, 3-[4-(2,3-Difluoro-phenyl)-isoxazol-5-yl]-5-pyridin-3-yl-1H-pyrrolo[2,3-b]pyridine]",< 200
11,"CC(=O)Nc1cccc(-c2cnc3[nH]cc(-c4oncc4-c4cccc(F)c4F)c3c2)c1 [Compound 65, N-(3-{3-[4-(2,3-Difluoro-phenyl)-isoxazol-5-yl]-1H-pyrrolo[2,3-b]pyridin-5-yl}-phenyl)-acetamide]",< 200
12,"Fc1cccc(-c2cnoc2-c2c[nH]c3ncc(-c4ncccn4)cc23)c1F [Compound 75, 3-[4-(2,3-Difluoro-phenyl)-isoxazol-5-yl]-5-pyrimidin-2-yl-1H-pyrrolo[2,3-b]pyridine]",200 to 1000
13,"Fc1cccc(-c2cnoc2-c2c[nH]c3ncc(-c4c[nH]cn4)cc23)c1F [Compound 76, 3-[4-(2,3-Difluoro-phenyl)-isoxazol-5-yl]-5-(3H-imidazol-4-yl)-1H-pyrrolo[2,3-b]pyridine]",< 200
14,"CN(C)Cc1ccnc(-c2cnc3[nH]cc(-c4oncc4-c4cccc(F)c4F)c3c2)c1 [Compound 82, (2-{3-[4-(2,3-Difluoro-phenyl)-isoxazol-5-yl]-1H-pyrrolo[2,3-b]pyridin-5-yl}-pyridin-4-ylmethyl)-dimethyl-amine]",200 to 1000

# Further lines, results first:
row,Ki [nM],Compound
1,200 to 1000,"Nc1ccnc(-c2cnc3[nH]cc(-c4oncc4-c4cccc(F)c4F)c3c2)c1 [Compound 83, 2-{3-[4-(2,3-Difluoro-phenyl)-isoxazol-5-yl]-1H-pyrrolo [2,3-b]pyridin-5-yl}-pyridin-4-ylamine]"
2,< 200,"Nc1cccc(-c2cnc3[nH]cc(-c4oncc4-c4cccc(F)c4F)c3c2)c1 [Compound 86, 3-{3-[4-(2,3-Difluoro-phenyl)-isoxazol-5-yl]-1H-pyrrolo [2,3-b]pyridin-5-yl}-phenylamine]"
3,< 200,"Oc1cccc(-c2cnc3[nH]cc(-c4oncc4-c4cccc(F)c4F)c3c2)c1 [Compound 87, 3-{3-[4-(2,3-Difluoro-phenyl)-isoxazol-5-yl]-1H-pyrrolo [2,3-b]pyridin-5-yl}-phenol]"
4,< 200,"Nc1ccc(-c2cnc3[nH]cc(-c4oncc4-c4cccc(F)c4F)c3c2)cc1 [Compound 90, 4-{3-[4-(2,3-Difluoro-phenyl)-isoxazol-5-yl]-1H-pyrrolo [2,3-b]pyridin-5-yl}-phenylamine]"
5,200 to 1000,"CN(C)Cc1ccc(-c2cnc3[nH]cc(-c4oncc4-c4cccc(F)c4F)c3c2)cc1 [Compound 91, (4-{3-[4-(2,3-Difluoro-phenyl)-isoxazol-5-yl]-1H-pyrrolo[2,3-b]pyridin-5-yl}-benzyl)-dimethyl-amine]"
6,< 200,"Fc1cccc(-c2cnoc2-c2c[nH]c3ncc(-c4ccc(CN5CCOCC5)cc4)cc23)c1F [Compound 92, 3-[4-(2,3-Difluoro-phenyl)-isoxazol-5-yl]-5-(4-morpholin-4-ylmethyl-phenyl)-1H-pyrrolo[2,3-b]pyridine]"
7,< 200,"Fc1cccc(-c2cnoc2-c2c[nH]c3ncc(-c4ccc(CN5CCCC5)cc4)cc23)c1F [Compound 93, 3-[4-(2,3-Difluoro-phenyl)-isoxazol-5-yl]-5-(4-pyrrolidin-1-ylmethyl-phenyl)-1H-pyrrolo[2,3-b]pyridine]"
8,< 200,"CN1CCN(Cc2ccc(-c3cnc4[nH]cc(-c5oncc5-c5cccc(F)c5F)c4c3)cc2)CC1 [Compound 94, 3-[4-(2,3-Difluoro-phenyl)-isoxazol-5-yl]-5-[4-(4-methyl-piperazin-1-ylmethyl)-phenyl]-1H-pyrrolo[2,3-b]pyridine]"

# Target: T2, TAK1A-TAB fusion protein (Homo sapiens, UniProt O43318)
# T2 construct: using 20 nM TAK1A-TAB fusion protein
# T2 sequence (O43318 with tags, fused parts or gaps isoform O43318-2 limits assumed): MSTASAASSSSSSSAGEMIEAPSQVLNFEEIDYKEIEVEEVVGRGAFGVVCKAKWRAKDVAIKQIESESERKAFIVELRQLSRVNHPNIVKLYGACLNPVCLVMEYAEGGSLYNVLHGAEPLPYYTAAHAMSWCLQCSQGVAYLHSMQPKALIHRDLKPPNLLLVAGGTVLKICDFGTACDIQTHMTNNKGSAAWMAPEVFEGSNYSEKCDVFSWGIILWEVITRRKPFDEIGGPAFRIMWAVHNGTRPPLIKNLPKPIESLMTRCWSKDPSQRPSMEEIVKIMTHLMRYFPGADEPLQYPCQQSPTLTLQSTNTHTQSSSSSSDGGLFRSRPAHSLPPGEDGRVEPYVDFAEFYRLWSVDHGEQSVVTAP
# Assay: TAK-1 inhibition assay, radiometric filter binding assay
# Format: biochemical
# Conditions: 50 μM ATP, 12 μM bovine myelin basic protein, 20 nM TAK1A-TAB fusion protein
# Experimental: Compounds were screened for their ability to inhibit TAK1A kinase activity using a radiometric filter binding assay. Reactions were carried out in a solution containing Buffer A (100 mM HEPES (pH 7.5), 10 mM MgCl2), 25 mM NaCl, 2 mM DTT, and 1.5% DMSO. Final substrate concentrations in the assay were 50 μM ATP (a mixture of unlabeled ATP (Sigma Chemicals, St Louis, Mo.) and ^33P-labeled ATP (PerkinElmer Life Sciences, Boston, Mass.) for a final specific activity of 50 Ci/mol), and 12 μM bovine myelin basic protein (MBP, Vertex Pharmaceuticals, Cambridge, Mass.). Reactions were carried out at ambient temperature (˜20° C.) using 20 nM TAK1A-TAB fusion protein. Under these conditions the extent of reaction is linear with time for a period of 2 hours.
# A test compound of the present invention (1 μL in DMSO) was combined with ATP and Buffer A in a final volume of 47 μL in a 96 well plate. Typically, a 6 point titration was conducted by preparing serial dilutions (from 10 mM compound stocks) with DMSO of the test compounds of the present invention in daughter plates, for final concentrations spanning 0.046 μM to 3.73 μM. The reaction was initiated by the addition of 20 μl of an enzyme stock solution consisting of TAK1A-TAB fusion (described by Sugita, T. et al. in Biochem. Biophys. Res. Comm. 2002, 297, 1277-1281), MBP, Buffer A, NaCl, and DTT. The reaction was allowed to proceed for two hours at ambient temperature, then quenched with an equal volume of 10 mM unlabeled ATP in 10% trichloroacetic acid. A 110 μL aliquot of the quenched reaction was transferred to a Multiscreen PH filter plate (Millipore, Billerica, Mass.) and allowed to incubate at ambient temperature overnight (typically 16-20 hours). Following incubation the filter plates were washed with 3×150 μL aliquots of 5% trichloroacetic acid using a modified Biotek Elx405 plate washer. A 70 μL aliquot of Microscint 20 scintillation fluid (PerkinElmer) was added to each well, and the plate was then sealed and read on a TopCount NXT microplate scintillation counter (PerkinElmer). The Ki values were determined from the rate data as a function of inhibitor concentration.
row,Ki [nM],Compound
1,< 200,"CN(C)C1CC=C(c2cnc3[nH]cc(-c4oncc4-c4cccc(F)c4F)c3c2)CC1 (stereo not shown) [Compound 138, (4-{3-[4-(2,3-Difluoro-phenyl)-isoxazol-5-yl]-1H-pyrrolo[2,3-b]pyridin-5-yl}-cyclohex-3-enyl)-dimethyl-amine]"
2,200 to 1000,"Fc1cccc(-c2cnoc2-c2c[nH]c3ncc(C4=CCC(N5CCOCC5)CC4)cc23)c1F (stereo not shown) [Compound 139, 3-[4-(2,3-Difluoro-phenyl)-isoxazol-5-yl]-5-(4-morpholin-4-yl-cyclohex-1-enyl)-1H-pyrrolo[2,3-b]pyridine]"
3,< 200,"CS(=O)(=O)NC1CC=C(c2cnc3[nH]cc(-c4oncc4-c4cccc(F)c4F)c3c2)CC1 (stereo not shown) [Compound 140, N-(4-{3-[4-(2,3-Difluoro-phenyl)-isoxazol-5-yl]-1H-pyrrolo[2,3-b]pyridin-5-yl}-cyclohex-3-enyl)-methanesulfonamide]"
